Each compound was assayed on Intestinal motility in dogs (jejunum) (assay: Intestinal motility in dogs (inhibition of jejunal motility, balloon method)). Conditions: Canis lupus familiaris; mongrel dogs 8 to 16 kg, urethane (1.5 g/kg) and morphine (15 mg/kg) anesthesia; balloon at jejunum, 10 cm H2O; maximum change in motility amplitude; route not given; read-out: 50% inhibition dose (ED50).
Format: in vivo, dog (mongrel)
Method: Intestinal motility in dogs: Method: Mongrel dogs weighing 8 to 16 kg which were withheld from any food and water for 24 hours were anesthetized with a combination of urethane (1.5 g/kg) and morphine (15 mg/kg). A balloon was placed at the jejunum of the dog, compressed at a pressure of 10 cm. H2 O and connected to a strain gauge. Changes in the motility were principally recorded in terms of the amplitude of the movements, but the number of movements occurring were also taken into account. The maximum change in all the determinations served as the basis for calculations of the 50% inhibition dose (ED50).

Point of comparison: `Oc1cc2c(cc1O)C(CNc1ccc(F)cc1)NCC2` (stereo not drawn) [Compound No. 1, 1-(p-Fluoroanilinomethyl)-6,7-dihydroxy-1,2,3,4-tetrahydroisoquinoline d-camphor-10-sulfonate], ED50 3 µg/kg. Against it:
- Cl.Oc1cc2c(cc1O)C(CNc1ccc(Cl)cc1)NCC2 (stereo not drawn) [Compound No. 2, 1-(p-Chloroanilinomethyl)-6,7-dihydroxy-1,2,3,4-tetrahydroisoquinoline hydrochloride] — 2-fold lower, 1.5 µg/kg
- Cl.Cl.Oc1ccc(NCC2NCCc3cc(O)c(O)cc32)cc1 (stereo not drawn) [Compound No. 3, 1-(p-Hydroxyanilinomethyl)-6,7-dihydroxy-1,2,3,4-tetrahydroisoquinoline dihydrochloride] — within 1.5-fold, 4 µg/kg
